According to patent US9649266B2 (priority 2014, dated 2017):
Read-outs that look alike come from different tables or passages of the source.

What was measured:
oily skin = details: 1% solution on face twice a day, after a month
enlarged skin pores = details: 0.1% gel on face twice a day, after a month
sebum production = details: for reduction in sebum production (as assessed by the Sebotape): 2% memantine lotion twice daily on back skin, vs pre-treatment or control region; for health of the skin in treatment region: 2% memantine lotion twice daily
acne = details: 0.5% cream on face twice a day, after three months

With `OC(CCN1CCCCC1)(c1ccccc1)C1CC2C=CC1C2` (stereo not shown) [biperiden] the “appearance of skin oiliness” value (oily skin) was “much less oily” and the “visible unwanted side-effects regarding skin” value (oily skin) was “no other visible unwanted side-effects”.
For `CNC1(C)C2CCC(C2)C1(C)C` (stereo not shown) [mecamylamine], the “appearance of skin pores” value (enlarged skin pores) was “smaller in diameter” and the “visible unwanted side-effects regarding skin” value (enlarged skin pores) was “no other visible unwanted side-effects”.
With `CC12CC3CC(C)(C1)CC(N)(C3)C2` [memantine] the “reduction in sebum production (as assessed by the Sebotape)” value (sebum production; after five days) was > 50%, the “reduction in sebum production (as assessed by the Sebotape)” value (sebum production; after six days) was > 50% and the “health of the skin in treatment region” value (sebum production; after five days) was “healthy skin”. For the same compound, the “health of the skin in treatment region” value (sebum production; after six days) was “healthy skin”, the appearance of acne (acne) was “less visible” and the “visible unwanted side-effects regarding skin” value (acne) was “no other visible unwanted side-effects”.
